Laboratory results taken from ChEMBL document CHEMBL1201862, “PubChem BioAssay data set” (2004).
Activity calls are given as the source filed them.

Assays:
[1] = Luminescence Cell-Based Dose Response to Identify Activators of 5'UTR Stem-Loop Driven Prion Protein mRNA Translation in H4-C Neuroglioblastoma Cells. [Related pubchem assays: 1829 (Project Summary), 1814 (Primary HTS)]; assay type: functional
[2] = Luminescence Cell-Based Dose Response HTS to Identify Activators of Luciferase Translation or Activity in H4 […] Cells. [Related pubchem assays: 1829 (Project Summary), 1814 (Primary HTS)]; assay type: functional
[3] = Luminescence Cell-Based Dose Confirmation to Identify Activators of 5'UTR Stem-Loop Driven Alpha-Synuclein mRNA Translation in H4 Neuroglioblastoma Cells. [Related pubchem assays: 1829 (Project Summary), 1814 (Primary HTS)]; assay type: functional
[4] = Luminescence Cell-Based Dose Response to Identify Activators of Luciferase Translation or Activity in H4-C Neuroglioblastoma Cells. [Related pubchem assays: 1829 (Project Summary), 1814 (Primary HTS)]; assay type: functional
[5] = biological target: T1, Mannose-6-phosphate isomerase (Homo sapiens, UniProt P34949); assay: human PMI inhibitors, high substrate, primary screen, biochemical, fluorescence intensity, high mannose 6-phosphate (AID 1220)
T1 sequence (P34949 whole entry): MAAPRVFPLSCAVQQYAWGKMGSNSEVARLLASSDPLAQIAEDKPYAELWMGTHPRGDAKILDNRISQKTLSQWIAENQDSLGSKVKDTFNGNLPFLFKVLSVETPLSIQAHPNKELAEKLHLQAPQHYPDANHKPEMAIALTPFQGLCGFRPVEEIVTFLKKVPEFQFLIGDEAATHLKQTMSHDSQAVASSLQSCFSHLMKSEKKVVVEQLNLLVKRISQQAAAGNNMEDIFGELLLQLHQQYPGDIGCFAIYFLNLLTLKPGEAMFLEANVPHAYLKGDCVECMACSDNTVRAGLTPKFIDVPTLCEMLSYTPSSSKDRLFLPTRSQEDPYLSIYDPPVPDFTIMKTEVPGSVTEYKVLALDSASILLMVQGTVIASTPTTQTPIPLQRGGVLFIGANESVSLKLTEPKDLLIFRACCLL

[6] = biological target: T1, Mannose-6-phosphate isomerase; assay: inhibitors of human PMI, primary screen, biochemical, fluorescence intensity, coupled assay (AID 1209)
Large T antigen = Large T antigen (Simian virus 40, UniProt P03070); assay type: functional, Betapolyomavirus macacae;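 further: Confirmatory-stage PubChem screen for compounds that inhibit SV40 T antigen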
Sequence of Large T antigen (P03070 whole entry): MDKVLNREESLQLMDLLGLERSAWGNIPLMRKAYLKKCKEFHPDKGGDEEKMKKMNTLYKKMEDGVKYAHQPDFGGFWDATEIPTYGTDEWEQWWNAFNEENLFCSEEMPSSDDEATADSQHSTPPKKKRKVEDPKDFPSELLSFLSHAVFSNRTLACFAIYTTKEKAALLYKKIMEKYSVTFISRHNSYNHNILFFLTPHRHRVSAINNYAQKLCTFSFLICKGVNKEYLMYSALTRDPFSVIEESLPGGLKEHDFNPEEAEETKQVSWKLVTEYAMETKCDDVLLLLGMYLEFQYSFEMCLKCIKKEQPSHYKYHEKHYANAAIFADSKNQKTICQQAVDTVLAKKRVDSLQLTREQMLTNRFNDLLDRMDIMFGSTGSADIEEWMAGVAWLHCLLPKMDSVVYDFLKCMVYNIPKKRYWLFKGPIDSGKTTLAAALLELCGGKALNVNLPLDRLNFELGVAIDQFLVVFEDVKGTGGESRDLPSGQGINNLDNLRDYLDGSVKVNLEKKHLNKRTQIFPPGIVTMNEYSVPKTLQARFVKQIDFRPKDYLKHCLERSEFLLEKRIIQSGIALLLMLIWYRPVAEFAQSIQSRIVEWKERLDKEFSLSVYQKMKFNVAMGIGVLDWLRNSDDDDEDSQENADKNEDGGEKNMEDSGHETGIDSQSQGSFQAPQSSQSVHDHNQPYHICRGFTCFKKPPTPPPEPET

[7] = biological target: T2, Neuropeptide Y receptor type 2 (Homo sapiens, UniProt P49146); assay type: functional, cell-based;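 further: HEK293 cells expressing the receptor and a CNG channel; stimulus was NPY near EC95 followed by isoproterenol to raise cAMP; antagonist potency measured as restoring cAMP signal that NPY suppresses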
T2 sequence (P49146 whole entry): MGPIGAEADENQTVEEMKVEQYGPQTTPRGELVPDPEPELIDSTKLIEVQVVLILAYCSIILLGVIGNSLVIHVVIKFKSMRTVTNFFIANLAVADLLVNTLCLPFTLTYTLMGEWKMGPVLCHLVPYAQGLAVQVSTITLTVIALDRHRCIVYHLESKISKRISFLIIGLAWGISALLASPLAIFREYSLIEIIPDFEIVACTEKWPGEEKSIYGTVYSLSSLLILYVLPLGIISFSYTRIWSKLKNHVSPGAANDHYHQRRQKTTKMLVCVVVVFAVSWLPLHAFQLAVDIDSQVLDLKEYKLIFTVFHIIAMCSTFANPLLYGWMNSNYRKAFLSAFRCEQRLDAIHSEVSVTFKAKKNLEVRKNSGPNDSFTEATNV

[8] = biological target: T3, Neuropeptide Y receptor type 1 (Homo sapiens, UniProt P25929); assay type: functional;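 further: HEK293 cells with a CNG channel challenged with NPY then isoproterenol; potency as antagonist that reverses NPY suppression of cAMP signal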
T3 sequence (P25929 whole entry): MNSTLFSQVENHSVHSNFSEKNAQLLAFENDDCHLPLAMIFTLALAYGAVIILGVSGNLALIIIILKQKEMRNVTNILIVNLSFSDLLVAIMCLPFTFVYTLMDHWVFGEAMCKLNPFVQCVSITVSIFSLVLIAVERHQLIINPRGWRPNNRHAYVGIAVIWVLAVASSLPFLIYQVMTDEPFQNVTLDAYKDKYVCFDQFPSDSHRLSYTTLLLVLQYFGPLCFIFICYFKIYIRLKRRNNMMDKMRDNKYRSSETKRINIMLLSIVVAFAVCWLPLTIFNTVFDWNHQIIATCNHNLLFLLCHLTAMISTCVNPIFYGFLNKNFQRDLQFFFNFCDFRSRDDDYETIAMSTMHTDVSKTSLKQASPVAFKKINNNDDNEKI

Ion channel NompC = Ion channel NompC (Danio rerio, UniProt Q7T1G6); assay: Fluorescence counterscreen assay for TRPML3 agonists: dose response cell-based high-throughput screening assay to identify agonists of the transient receptor potential channel N1 (TRPN1). [Related pubchem assays: 1526, 1424, 1448 ]; assay type: functional
Sequence of Ion channel NompC (Q7T1G6 whole entry): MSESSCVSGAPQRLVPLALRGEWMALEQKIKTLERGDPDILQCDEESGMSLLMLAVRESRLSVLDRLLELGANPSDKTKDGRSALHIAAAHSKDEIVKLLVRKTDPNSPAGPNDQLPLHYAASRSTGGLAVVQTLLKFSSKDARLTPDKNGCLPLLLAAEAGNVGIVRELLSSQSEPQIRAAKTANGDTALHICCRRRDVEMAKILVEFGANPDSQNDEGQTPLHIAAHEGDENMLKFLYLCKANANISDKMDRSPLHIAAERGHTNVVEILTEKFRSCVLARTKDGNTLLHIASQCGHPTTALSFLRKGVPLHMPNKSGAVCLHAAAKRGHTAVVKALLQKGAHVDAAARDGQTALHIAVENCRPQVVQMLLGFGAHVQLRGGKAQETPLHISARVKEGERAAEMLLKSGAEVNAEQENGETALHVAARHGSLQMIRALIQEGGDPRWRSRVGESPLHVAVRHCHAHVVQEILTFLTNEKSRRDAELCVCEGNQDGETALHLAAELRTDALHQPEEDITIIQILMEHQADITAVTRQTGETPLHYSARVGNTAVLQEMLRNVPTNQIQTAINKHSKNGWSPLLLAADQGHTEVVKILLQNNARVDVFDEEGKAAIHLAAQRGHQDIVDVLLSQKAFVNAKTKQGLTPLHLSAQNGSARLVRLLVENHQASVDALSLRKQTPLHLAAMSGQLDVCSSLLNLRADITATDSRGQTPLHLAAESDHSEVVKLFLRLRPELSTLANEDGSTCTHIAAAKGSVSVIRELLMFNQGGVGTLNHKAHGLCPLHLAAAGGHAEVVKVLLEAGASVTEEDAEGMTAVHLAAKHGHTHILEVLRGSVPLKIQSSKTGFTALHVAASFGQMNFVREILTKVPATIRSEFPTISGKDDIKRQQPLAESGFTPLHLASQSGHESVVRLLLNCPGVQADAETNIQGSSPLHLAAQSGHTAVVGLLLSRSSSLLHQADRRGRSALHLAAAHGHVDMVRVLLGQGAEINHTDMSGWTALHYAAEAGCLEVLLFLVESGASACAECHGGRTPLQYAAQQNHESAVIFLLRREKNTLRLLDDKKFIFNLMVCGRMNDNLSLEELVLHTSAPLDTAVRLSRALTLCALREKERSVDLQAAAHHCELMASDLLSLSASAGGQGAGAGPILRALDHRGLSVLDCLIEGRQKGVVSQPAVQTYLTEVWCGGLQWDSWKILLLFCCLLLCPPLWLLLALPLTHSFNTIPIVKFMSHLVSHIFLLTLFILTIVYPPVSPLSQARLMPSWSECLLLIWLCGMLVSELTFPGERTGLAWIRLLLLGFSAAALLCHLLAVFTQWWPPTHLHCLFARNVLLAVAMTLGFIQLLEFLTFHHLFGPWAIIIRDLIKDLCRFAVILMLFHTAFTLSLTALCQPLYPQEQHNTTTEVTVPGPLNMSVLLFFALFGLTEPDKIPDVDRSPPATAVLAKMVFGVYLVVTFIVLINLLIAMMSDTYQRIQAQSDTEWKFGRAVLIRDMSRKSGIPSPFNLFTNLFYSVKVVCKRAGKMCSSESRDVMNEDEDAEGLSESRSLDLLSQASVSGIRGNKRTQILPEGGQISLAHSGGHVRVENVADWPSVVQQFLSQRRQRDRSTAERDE

Mucolipin-3 = biological target: T4, Mucolipin-3 (Homo sapiens, UniProt Q8TDD5); assay: Dose response cell-based high-throughput screening assay for agonists of the transient receptor potential channel ML3 (TRPML3). [Related pubchem assays: 1526, 1424, 1448 ]; assay type: functional
T4 sequence (Q8TDD5 whole entry): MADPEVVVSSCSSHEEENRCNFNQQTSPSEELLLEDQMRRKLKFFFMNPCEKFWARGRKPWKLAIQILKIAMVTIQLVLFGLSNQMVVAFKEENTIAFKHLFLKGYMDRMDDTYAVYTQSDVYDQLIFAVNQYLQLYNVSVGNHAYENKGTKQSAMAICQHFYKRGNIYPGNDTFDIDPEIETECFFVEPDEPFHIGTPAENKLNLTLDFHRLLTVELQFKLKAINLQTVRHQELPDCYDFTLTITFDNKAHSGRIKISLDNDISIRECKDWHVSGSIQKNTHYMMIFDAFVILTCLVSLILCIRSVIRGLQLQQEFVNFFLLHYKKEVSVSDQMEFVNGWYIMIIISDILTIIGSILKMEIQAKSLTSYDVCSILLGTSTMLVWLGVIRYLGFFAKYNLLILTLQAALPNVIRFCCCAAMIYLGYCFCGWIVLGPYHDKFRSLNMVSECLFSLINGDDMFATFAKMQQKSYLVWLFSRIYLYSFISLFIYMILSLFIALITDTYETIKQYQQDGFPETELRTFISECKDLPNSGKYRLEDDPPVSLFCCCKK

Bcl-2-related protein A1 [9] = biological target: T5, Bcl-2-related protein A1 (Mus musculus, UniProt Q07440); assay: Bfl-1 inhibitors blocking BH3 peptide binding, confirmation, biochemical, TR-FRET, mouse Bfl-1 (AID 621);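 further: TR-FRET binding of GST-Bfl-1 to FITC-labelled Bid peptide via terbium antibody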
T5 sequence (Q07440 whole entry): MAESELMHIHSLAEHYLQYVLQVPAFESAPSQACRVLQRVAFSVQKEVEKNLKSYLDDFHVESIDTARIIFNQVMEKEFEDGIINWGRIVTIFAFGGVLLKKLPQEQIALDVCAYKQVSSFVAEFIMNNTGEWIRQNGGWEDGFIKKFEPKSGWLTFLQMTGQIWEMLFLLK

Bcl-2-related protein A1 [10] = biological target: T5, Bcl-2-related protein A1; assay: Bfl-1 binding inhibitors, SAR follow-up, biochemical, fluorescence polarization (AID 1070)
[11] = biological target: Glyceraldehyde-3-phosphate dehydrogenase (Homo sapiens, UniProt P04406)
Sequence of Glyceraldehyde-3-phosphate dehydrogenase (P04406 whole entry): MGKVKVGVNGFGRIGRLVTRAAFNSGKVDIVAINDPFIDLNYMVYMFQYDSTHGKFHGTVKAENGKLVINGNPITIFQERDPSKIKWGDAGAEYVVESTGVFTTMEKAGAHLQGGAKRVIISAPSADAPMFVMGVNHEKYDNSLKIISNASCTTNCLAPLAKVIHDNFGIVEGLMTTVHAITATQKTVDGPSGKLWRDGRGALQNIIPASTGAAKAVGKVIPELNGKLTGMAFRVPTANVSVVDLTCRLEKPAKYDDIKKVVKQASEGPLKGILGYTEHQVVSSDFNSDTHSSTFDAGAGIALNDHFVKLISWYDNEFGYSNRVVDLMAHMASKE

[12] = biological target: G-protein coupled receptor 55 (Homo sapiens, UniProt Q9Y2T6); assay: GPR55 antagonists blocking LPI-driven arrestin recruitment, primary screen, imaging, U2OS, beta-arrestin-GFP, LPI agonist (AID 2013); assay type: functional;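 further: antagonist potency measured as reduced agonist-driven arrestin aggregation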
Sequence of G-protein coupled receptor 55 (Q9Y2T6 whole entry): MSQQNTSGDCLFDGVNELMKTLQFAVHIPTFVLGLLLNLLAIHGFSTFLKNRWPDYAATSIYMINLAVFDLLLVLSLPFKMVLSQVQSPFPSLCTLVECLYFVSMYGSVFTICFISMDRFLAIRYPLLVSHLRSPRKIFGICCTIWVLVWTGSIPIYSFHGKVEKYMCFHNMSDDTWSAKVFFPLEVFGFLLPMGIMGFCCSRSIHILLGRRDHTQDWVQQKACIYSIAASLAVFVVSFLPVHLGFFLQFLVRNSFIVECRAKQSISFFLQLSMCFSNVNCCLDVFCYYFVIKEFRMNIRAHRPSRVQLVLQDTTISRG

[13] = M. tuberculosis H37Rv growth inhibitors, H37Rv strain (AID 1626); assay type: functional
Cytochrome P450 2C9 = Cytochrome P450 2C9 (Homo sapiens, UniProt P11712)
Sequence of Cytochrome P450 2C9 (P11712 whole entry): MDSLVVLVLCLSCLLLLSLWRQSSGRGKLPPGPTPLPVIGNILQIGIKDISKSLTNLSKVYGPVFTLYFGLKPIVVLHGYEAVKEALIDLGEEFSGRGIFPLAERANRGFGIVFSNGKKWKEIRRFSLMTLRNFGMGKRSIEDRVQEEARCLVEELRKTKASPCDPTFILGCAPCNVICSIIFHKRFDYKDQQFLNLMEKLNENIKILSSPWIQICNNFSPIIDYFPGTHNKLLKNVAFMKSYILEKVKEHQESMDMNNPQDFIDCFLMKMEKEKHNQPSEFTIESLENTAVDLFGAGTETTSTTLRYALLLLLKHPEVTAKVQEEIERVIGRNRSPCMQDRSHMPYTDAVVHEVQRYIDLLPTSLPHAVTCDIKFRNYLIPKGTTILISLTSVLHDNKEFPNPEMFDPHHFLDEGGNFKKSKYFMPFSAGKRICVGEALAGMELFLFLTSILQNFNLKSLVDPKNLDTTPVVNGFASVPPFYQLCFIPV

[14] = biological target: T6, Replicative DNA helicase DnaB (Mycobacterium tuberculosis, UniProt P9WMR3); assay: DnaB intein splicing inhibitors, dose response, biochemical, cell-free fluorescence (AID 449749); assay type: functional
T6 sequence (P9WMR3 whole entry): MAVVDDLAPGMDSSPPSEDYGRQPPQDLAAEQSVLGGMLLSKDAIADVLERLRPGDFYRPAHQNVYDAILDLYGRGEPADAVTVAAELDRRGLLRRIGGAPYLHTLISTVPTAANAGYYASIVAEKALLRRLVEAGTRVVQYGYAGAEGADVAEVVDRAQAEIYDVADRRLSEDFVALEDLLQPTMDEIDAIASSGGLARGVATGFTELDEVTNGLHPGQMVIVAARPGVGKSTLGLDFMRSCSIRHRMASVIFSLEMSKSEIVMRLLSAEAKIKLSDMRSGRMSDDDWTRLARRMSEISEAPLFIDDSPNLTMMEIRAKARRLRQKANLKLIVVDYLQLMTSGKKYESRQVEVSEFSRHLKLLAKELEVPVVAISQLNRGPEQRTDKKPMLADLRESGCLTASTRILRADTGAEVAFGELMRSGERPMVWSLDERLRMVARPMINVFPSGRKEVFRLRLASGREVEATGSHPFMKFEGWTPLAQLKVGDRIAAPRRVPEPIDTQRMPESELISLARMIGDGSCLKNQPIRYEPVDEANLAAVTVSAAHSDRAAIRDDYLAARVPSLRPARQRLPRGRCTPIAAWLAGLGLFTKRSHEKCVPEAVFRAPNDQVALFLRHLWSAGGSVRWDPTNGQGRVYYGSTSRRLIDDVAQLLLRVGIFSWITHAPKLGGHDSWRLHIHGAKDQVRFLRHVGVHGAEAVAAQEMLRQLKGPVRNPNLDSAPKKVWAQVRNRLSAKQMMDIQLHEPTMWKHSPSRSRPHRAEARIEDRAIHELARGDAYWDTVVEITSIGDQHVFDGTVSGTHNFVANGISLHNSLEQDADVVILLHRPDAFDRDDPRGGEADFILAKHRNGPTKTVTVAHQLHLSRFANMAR

[15] = biological target: T7, Polyadenylate-binding protein 1 (Homo sapiens, UniProt P11940); assay: PABP1 MLLE–PAM2 binding inhibitor potency, dose response, biochemical, fluorescence polarization, FITC-PAM2 peptide (AID 602259); assay type: functional; settings: read-out: IC50_Mean
T7 sequence (P11940 whole entry): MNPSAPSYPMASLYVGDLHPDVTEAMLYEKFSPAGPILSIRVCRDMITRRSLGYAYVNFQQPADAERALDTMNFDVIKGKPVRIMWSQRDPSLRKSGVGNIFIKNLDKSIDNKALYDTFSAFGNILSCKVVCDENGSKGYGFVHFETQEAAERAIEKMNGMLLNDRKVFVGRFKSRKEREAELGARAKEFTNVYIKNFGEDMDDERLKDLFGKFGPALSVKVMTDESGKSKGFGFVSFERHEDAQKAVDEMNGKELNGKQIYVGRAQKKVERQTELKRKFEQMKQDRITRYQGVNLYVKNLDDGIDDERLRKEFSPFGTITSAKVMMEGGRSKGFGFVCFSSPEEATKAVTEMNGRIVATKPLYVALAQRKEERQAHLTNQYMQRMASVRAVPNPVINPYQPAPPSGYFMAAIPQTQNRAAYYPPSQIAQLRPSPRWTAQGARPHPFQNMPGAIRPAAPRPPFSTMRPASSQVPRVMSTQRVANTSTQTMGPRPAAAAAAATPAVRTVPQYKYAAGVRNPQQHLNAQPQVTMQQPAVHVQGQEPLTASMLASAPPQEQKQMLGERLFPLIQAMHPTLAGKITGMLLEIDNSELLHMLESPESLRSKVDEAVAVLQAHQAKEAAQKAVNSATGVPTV

Vero = Vero cell cytotoxicity, cytotoxicity control for flavivirus capping enzyme inhibitors (AID 588742); assay type: functional; settings: Chlorocebus sabaeus
Protein RecA = biological target: T8, Protein RecA (Mycobacterium tuberculosis, UniProt P9WHJ3); assay: Fluorescence Cell-Free Homogeneous Dose Retest to Identify Inhibitors of RecA-Intein Splicing Activity. [Related pubchem assays (depositor defined):AID2097, AID2223, AID489010, AID492950]; assay type: functional
T8 sequence (P9WHJ3 whole entry): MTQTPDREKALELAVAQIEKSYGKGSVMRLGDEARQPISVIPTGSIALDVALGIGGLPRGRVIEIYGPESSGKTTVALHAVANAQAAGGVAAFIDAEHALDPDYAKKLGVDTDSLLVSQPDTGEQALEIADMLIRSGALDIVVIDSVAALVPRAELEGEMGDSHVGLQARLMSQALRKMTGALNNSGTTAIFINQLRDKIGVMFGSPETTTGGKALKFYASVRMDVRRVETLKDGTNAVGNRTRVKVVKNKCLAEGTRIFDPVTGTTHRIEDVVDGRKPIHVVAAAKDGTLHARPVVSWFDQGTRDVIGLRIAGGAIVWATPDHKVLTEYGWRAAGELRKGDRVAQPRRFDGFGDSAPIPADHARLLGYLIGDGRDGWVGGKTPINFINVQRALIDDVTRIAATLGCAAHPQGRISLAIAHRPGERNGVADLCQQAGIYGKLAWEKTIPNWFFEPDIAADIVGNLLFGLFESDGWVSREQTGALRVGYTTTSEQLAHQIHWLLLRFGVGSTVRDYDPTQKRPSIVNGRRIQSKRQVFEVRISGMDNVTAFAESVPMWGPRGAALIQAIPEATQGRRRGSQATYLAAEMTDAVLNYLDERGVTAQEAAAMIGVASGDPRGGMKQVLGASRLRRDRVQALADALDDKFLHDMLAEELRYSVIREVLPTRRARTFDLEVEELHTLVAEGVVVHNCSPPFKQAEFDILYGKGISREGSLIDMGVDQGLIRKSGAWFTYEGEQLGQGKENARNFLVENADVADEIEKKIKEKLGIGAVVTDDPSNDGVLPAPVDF

[16] = biological target: T7, Polyadenylate-binding protein 1; assay: PABP1 MLLE–PAM2 interaction inhibitors, dose response, miRNA deadenylation inhibitor project, biochemical, fluorescence polarization, Cy5-PAM2 peptide, secondary (AID 602260); assay type: functional; settings: read-out: IC50_Mean

## Cc1nnc2n(c1=O)N=C(c1ccc(Cl)cc1)CS2
[1]
  EC50: 0.355 µM (active)
[2]
  EC50: < 0.1 µM (inconclusive)
[3]
  EC50: 0.244 µM (active)
[4]
  EC50: 0.249 µM (active)

## COc1ccc2c(c1)-c1nc(/N=C/c3ccc(O)c(OC)c3)sc1CC2
[5]
  IC50: > 50 µM (not active)
[6]
  IC50: > 50 µM (not active)
Large T antigen
  IC50: 15.5 µM (active)

## c1ccc(COc2ccc(OCCCCN3CCCCC3)cc2)cc1
[7]
  IC50: > 35 µM (not active)
[8]
  IC50: 9.46 µM (active)

## COc1ccccc1C1CN=NC12CCCc1ccccc1C2=O (configuration not stated)
Ion channel NompC
  EC50: > 29.9 µM (not active)
Mucolipin-3
  EC50: 1.83 µM (active)

## Clc1nc2ccccc2cc1-c1nnn(-c2ccccc2)n1
Bcl-2-related protein A1 [9]
  IC50: > 100 µM (not active)
Bcl-2-related protein A1 [10]
  IC50: > 100 µM (not active)

## CC1NC(C)C(C)N(C2=C(Cl)C(=O)N(c3ccc(Cl)c(Cl)c3)C2=O)C1C (configuration not stated)
[11]
  IC50: > 100 µM (not active)
Bcl-2-related protein A1 [9]
  IC50: 47 µM (active)
Bcl-2-related protein A1 [10]
  IC50: > 100 µM (not active)

## Cc1nc2ccc(F)cc2cc1C(=O)Nc1ccc(Cl)c(Cl)c1
[7]
  IC50: 8.88 µM (active)
[8]
  IC50: 8.84 µM (active)

## O=C1N=C(N2CCOCC2)S/C1=C/c1ccc(-c2ccc(F)cc2)o1
[12]
  IC50: 2.93 µM (active)
[13]
  IC50: > 100 µM (active)

## Cc1nc2c3cnn(-c4ccc(C)c(C)c4)c3ncn2n1
[1]
  EC50: 0.298 µM (active)
[2]
  EC50: < 0.1 µM (active)
[3]
  EC50: 0.424 µM (active)
Cytochrome P450 2C9
  AC50: 20 µM (inconclusive)
[4]
  EC50: 0.341 µM (active)

## CCOC(=O)c1c(C)oc2c1c(/C=N/CCO)c(O)c1ccccc12
[14]
  AC50: > 380 µM (inactive)
[15]
  IC50: > 66 µM (inactive)
[5]
  IC50: 4.48 µM (active)
Vero
  CC50: 32.9 µM (active)
[6]
  IC50: 5.36 µM (active)
Protein RecA
  EC50: 0.618 µM (active)
[16]
  IC50: > 66 µM (inactive)
